Assay results published in ChEMBL document CHEMBL2390906, “Synthetic chalcones and sulfonamides as new classes of Yersinia enterocolitica YopH tyrosine phosphatase inhibitors” (Eur J Med Chem, 2013).
pIC50, pKi: −log10 of the molar value.

What was measured:
[1] = target: T1, Tyrosine-protein phosphatase YopH (Yersinia enterocolitica, UniProt P15273); assay: Competitive inhibition of Yersinia enterocolitica recombinant YopH using pNPP as substrate after 10 mins by Line-weaver Burk plot analysis
[2] = target: T1, Tyrosine-protein phosphatase YopH; assay: Inhibition of Yersinia enterocolitica recombinant YopH using pNPP as substrate after 10 mins by spectrophotometry
[3] = target: Tyrosine-protein phosphatase YopH (Yersinia enterocolitica) (UniProt P15273); assay: Inhibition of Yersinia enterocolitica recombinant YopH using pNPP as substrate at 25 uM after 10 mins by spectrophotometry
[4] = target: T1, Tyrosine-protein phosphatase YopH; assay: Noncompetitive inhibition of Yersinia enterocolitica recombinant YopH using pNPP as substrate after 10 mins by Line-weaver Burk plot analysis

T1 sequence (P15273 whole entry): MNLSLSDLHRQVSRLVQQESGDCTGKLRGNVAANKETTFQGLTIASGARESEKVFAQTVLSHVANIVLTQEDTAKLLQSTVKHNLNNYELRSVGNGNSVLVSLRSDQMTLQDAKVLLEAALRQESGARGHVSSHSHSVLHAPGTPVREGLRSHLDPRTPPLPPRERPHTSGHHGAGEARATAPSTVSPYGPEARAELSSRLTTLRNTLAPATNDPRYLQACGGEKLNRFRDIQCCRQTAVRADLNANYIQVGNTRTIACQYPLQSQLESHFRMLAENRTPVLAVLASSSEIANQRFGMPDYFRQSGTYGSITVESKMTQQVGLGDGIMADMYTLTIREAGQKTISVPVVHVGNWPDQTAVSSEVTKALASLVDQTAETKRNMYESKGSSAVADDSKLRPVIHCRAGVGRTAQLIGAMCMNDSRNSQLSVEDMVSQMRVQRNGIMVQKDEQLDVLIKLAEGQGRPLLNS
Sequence of Tyrosine-protein phosphatase YopH (Yersinia enterocolitica) (P15273 whole entry): as above

SMILES	pKi [1]	pIC50 [2]	inhibition [3]	pKi [4]
O=C(/C=C/c1ccc2c(c1)OCO2)c1cccc([N+](=O)[O-])c1	5.35	5.00	31.3%	–
O=C(/C=C/c1ccc2ccccc2c1)c1ccc2ccccc2c1	4.85	4.69	66.9%	–
O=C1c2cccc3c(Cl)ccc(c23)C(=O)N1Cc1ccc(S(=O)(=O)N2CCOCC2)cc1	–	4.81	82.1%	4.44
O=C(/C=C/c1cccc2ccccc12)c1ccc2ccccc2c1	–	3.71	26.5%	–
O=C(/C=C/c1cc2ccccc2nc1Cl)c1ccc2c(c1)OCO2	–	3.93	44.2%	–
O=C(/C=C/c1ccc(-c2cc(C(F)(F)F)ccc2Cl)o1)c1ccc2c(c1)OCO2	4.95	4.41	33.8%	–
O=C(/C=C/c1cccc([N+](=O)[O-])c1)c1ccc2ccccc2c1	–	3.91	34.7%	–
O=C(/C=C/c1ccc2c(c1)OCO2)c1ccc([N+](=O)[O-])cc1	5.36	4.82	65.7%	–
O=C(/C=C/c1ccccc1)c1ccc2ccccc2c1	–	3.61	30.9%	–
CC12C=CC(O1)[C@H]1C(=O)N(c3ccc(S(=O)(=O)N/N=C/c4ccc(Cl)c(Cl)c4)cc3)C(=O)[C@H]12 (stereo not given in full)	–	4.21	45.6%	–
COc1ccc2nc(Cl)c(/C=C/C(=O)c3ccc4ccccc4c3)cc2c1	–	3.57	34.6%	–
O=C1[C@@H]2C3C=CC(O3)[C@@H]2C(=O)N1c1ccc(S(=O)(=O)N2CCCC2)cc1	5.36	5.05	76.4%	–
